Source: the NIST ThermoML archive (doi:10.1016/j.jct.2013.07.003)

Assays:
[1] = 298.2 K; 101.33 kPa; Liquid; Vibrating tube method
[2] = refractive index (Na D-line) (dimensionless); settings: 101.33 kPa, Liquid, Standard Abbe refractometry
[3] = relative permittivity at various frequencies (dimensionless); settings: 101 kPa, Liquid, Frequency=0.1 MHz, Coaxial cylinder capacitor
[4] = refractive index (Na D-line) (dimensionless); xn = mol fraction of the nth substance listed; settings: 101 kPa, Liquid, Standard Abbe refractometry, x2 = 0
[5] = relative permittivity at various frequencies (dimensionless); xn = mol fraction of the nth substance listed; settings: 101 kPa, Liquid, Frequency=0.1 MHz, Coaxial cylinder capacitor, x2 = 0

CC(O)CCO (stereo not drawn) [1,3-butanediol]
Settings | mass density [kg/m3]
[1] | 1001.2

Settings | refractive index, 298.2 K | refractive index, 303.2 K | refractive index, 308.2 K | refractive index, 313.2 K | refractive index, 318.2 K | relative permittivity, 298.2 K | relative permittivity, 303.2 K | relative permittivity, 308.2 K | relative permittivity, 313.2 K | relative permittivity, 318.2 K
[2] | 1.4384 | 1.4371 | 1.4356 | 1.4341 | 1.4328 | – | – | – | – | –
[3] | – | – | – | – | – | 28.52 | 27.66 | 26.77 | 25.98 | 25.22

C1COCCO1 [1,4-dioxane]
Settings | mass density [kg/m3]
[1] | 1027.89

Settings | refractive index, 298.2 K | refractive index, 303.2 K | refractive index, 308.2 K | refractive index, 313.2 K | refractive index, 318.2 K | relative permittivity, 298.2 K | relative permittivity, 303.2 K | relative permittivity, 308.2 K | relative permittivity, 313.2 K | relative permittivity, 318.2 K
[2] | 1.4201 | 1.4174 | 1.4145 | 1.4118 | 1.4088 | – | – | – | – | –
[3] | – | – | – | – | – | 2.23 | 2.22 | 2.21 | 2.2 | 2.19

C1COCCO1 [1,4-dioxane] + CC(O)CCO
Settings | refractive index, 298.2 K | refractive index, 303.2 K | refractive index, 308.2 K | refractive index, 313.2 K | refractive index, 318.2 K | relative permittivity, 298.2 K | relative permittivity, 303.2 K | relative permittivity, 308.2 K | relative permittivity, 313.2 K | relative permittivity, 318.2 K
[4] | 1.4201 | 1.4174 | 1.4145 | 1.4118 | 1.4088 | – | – | – | – | –
[5] | – | – | – | – | – | 2.23 | 2.22 | 2.21 | 2.2 | 2.19

CCCCCCCCO [octan-1-ol]
Settings | mass density [kg/m3]
[1] | 821.69

Settings | refractive index, 298.2 K | refractive index, 303.2 K | refractive index, 308.2 K | refractive index, 313.2 K | refractive index, 318.2 K | relative permittivity, 298.2 K | relative permittivity, 303.2 K | relative permittivity, 308.2 K | relative permittivity, 313.2 K | relative permittivity, 318.2 K
[2] | 1.4276 | 1.4254 | 1.423 | 1.4205 | 1.4184 | – | – | – | – | –
[3] | – | – | – | – | – | 9.81 | 9.38 | 8.94 | 8.52 | 8.11

CCCCCCCCO [octan-1-ol] + CC(O)CCO
Settings | refractive index, 298.2 K | refractive index, 303.2 K | refractive index, 308.2 K | refractive index, 313.2 K | refractive index, 318.2 K | relative permittivity, 298.2 K | relative permittivity, 303.2 K | relative permittivity, 308.2 K | relative permittivity, 313.2 K | relative permittivity, 318.2 K
[4] | 1.4276 | 1.4254 | 1.423 | 1.4205 | 1.4184 | – | – | – | – | –
[5] | – | – | – | – | – | 9.81 | 9.38 | 8.94 | 8.52 | 8.11
